Experiments:
[1] = system: dendritic cells in vaginal model co-culture; assay: MIMIC co-culture of primed vaginal epithelial microcarriers with PTE module: dendritic cell recovery; assay type: cell-based, human; conditions: FIG. 2
Excerpt: (§1) Our experimental design of the MIMIC® co-culture of RWV bioreactor-grown epithelial tissue from selected female reproductive tract tested the efficacy of the differentiated epithelia to pick up and present antigen (FIG. 1). RWV-cultured female reproductive microcarriers of differentiated vaginal and endocervical mucosa were exposed to microbicide/spermicide and bacterial antigen and then introduced to the APC-containing PTE module to study the innate immune responses to Nonoxynol-9 and E. coli bioparticulate treatments.
(§2) Approximately 3.5-week cultured vaginal tissue aggregates and endocervical tissue aggregates were used to mimic the local mucosal tissue of the female reproductive vaginal and endocervical regions. Cell-bearing microcarrier beads were prepared as follows. Collagen-coated Cytodex beads (Sigma) composed of dextran and having an average size of ˜60-87 microns were prepared for cell attachment by soaking in sterile PBS overnight and autoclaved. […]
(§3) Specifically, for the differentiated reproductive epithelial microcarrier co-cultures used here, we generated PTE modules over a period of 2 weeks as follows (see FIG. 1). […] Cell layer integrity and viability were assessed by phase contrast microscopy and/or trypan blue exclusion staining. […]

vaginal epithelial cells = conditions: background statement; cited from earlier work
[2] = system: dendritic cells in endocervical model co-culture; assay: MIMIC co-culture of primed endocervical epithelial microcarriers with PTE module: dendritic cell recovery; assay type: cell-based, human; conditions: FIG. 2
Excerpt: as §1, §2, §3

[3] = system: endocervical model co-culture; assay: Bioplex cytokine production in co-culture supernatants, endocervical model; assay type: cell-based, human; conditions: FIG. 4
Protocol: Vaginal- and endocervix-cell bearing microcarriers were collected, washed, and re-suspended in 30 mL of KSFM complete medium (Invitrogen, with EGF and BPE), CaCl, and Primocin (InvivoGen). They were then placed on a shaker in polystyrene bottles with vented caps in an incubator (5% CO2, 37° C.) to mimic the circular agitation of the RWV bioreactor. The two types of cell-bearing microcarriers were primed using E. coli as the antigen to mimic an in vivo infection of the female reproductive mucosa through the following steps after a day of culture in the incubator. The E. coli was heat-inactivated and the resulting bioparticles were added at a concentration of 1×10^6/mL to the shaker bottles. E. coli bioparticles alone and no-treatment conditions served as positive and baseline controls, respectively.
The effect of the microbicide nonoxynol-9 (N-9) on antigen priming was studied in experiments by mimicking in vivo microbicidal exposure through the use of Conceptrol®, leading to tissue damage, followed by bacterial infection. Over-the-counter, N-9-containing Conceptrol® was diluted to 20 μg/mL. The concentration of Conceptrol® was chosen to limit massive cell death due to presence of N-9 and reported findings of weakened membrane integrity in the presence of this surfactant microbicide (Dayal, 2003). […]

[4] = system: PTE antigen-presenting cells; assay: Total immune cell recovery by trypan blue exclusion and flow cytometry (FIG. 2); assay type: cell-based, human; conditions: FIG. 2 legend; model not specified
Protocol: FIG. 2. Total immune cell recovery calculated by trypan blue exclusion and total DCs per treatment were calculated by applying the percentage marker expression from flow cytometry data. […] CD86 and CCR7 expression in the vaginal model also confirm the antigen uptake/presentation responsiveness of the vaginal model.
The quality of immune APCs was determined by quantifying dendritic cell marker expression (HLA-DR, CD14, CD86, CCR7) from the reverse-transmigrated cell fraction of the MIMIC® co-cultures.

[5] = N-9 and E. coli bioparticles delivered together
[6] = single treatment, N-9 20 μg/mL, E. coli bioparticles 1×10^6/mL, overnight co-culture

Question: Which results are given for nonoxynol-9 [N-9]?
Answer: live dendritic cell recovery [1, 5]: overall reduction in live dendritic cell recovery; live dendritic cell recovery [1, 6]: overall reduction in live dendritic cell recovery; effect on vaginal epithelial cells in vitro (vaginal epithelial cells): increased inflammation, cell death, and damaged tissue mucosa; live dendritic cell recovery [2, 5]: overall reduction in live dendritic cell recovery; live dendritic cell recovery [2, 6]: overall reduction in live dendritic cell recovery; cytokine levels versus no treatment microcarrier plus PTE control [3]: above the no treatment microcarrier plus PTE control; total DC viability [4]: reduced

— patent publication US20120156670A1, “IN VITRO […]-CULTURE MODELS” (ARIZONA STATE UNIVERSITY, priority 2010, published 2012)
